From publication PMC7470115, “Design, synthesis and biological evaluation of novel tetrahydrothieno [2,3-c]pyridine substitued benzoyl thiourea derivatives as PAK1 inhibitors in triple negative breast cancer” (Journal of Enzyme Inhibition and Medicinal Chemistry, 2020)
Where two headings read alike, the source gives them in different places. Each block holds one compound with its values, some of them ahead of it.

Key:
MDA-MB-231 cells [1] = experiment: Cell viability assay (MTT); type: cell-based; settings: for IC50: MTT
Method: (§1) MDA-MB-231 were purchased from American Type Culture Collection (ATCC, Manassas, VA, USA). Cells were cultured in DMEM with 10% foetal bovine serum and incubated with 5% CO2. Antibodies used in this study were as follows: cdc25c (4688, CST), pcdc2^Tyr[15] (4539, CST), cyclinB1 (4135, CST), PAK1 (ab223849, CST), p-PAK1^Ser199 (ab192814, abcam), JNK (9252, CST), p-JNK (9255, CST), c-Jun (9165, CST), p-c-Jun (3270, CST), p-c-Raf^Ser259(9421, CST), p-MEK ^Ser217/221 (9154, CST), p-ERK ^Thr202/Tyr204 (9101, CST), β-actin (3700, CST). MTT (M2128) was purchased from Sigma- Aldrich (St. Louis, MO, USA).
Cells were dispensed in 96-well plates at a density of 5 × 10^4 cells/ml. After 24 h or 48 h incubation, cells were treated with different concentrations of compounds for the indicated time periods. Cell viability was measured by the MTT assay.

PAK1 [2] = target: T1, PAK1 (Homo sapiens, UniProt Q13153); experiment: PAK1 enzymatic assay (Kinase-Glo Plus / ADP-Glo luminescence); type: biochemical
Method: These assays were carried out as described previously. All of the enzymatic reactions were conducted at 30 °C for 40 min. The 50 µl reaction mixture contains 40 mM Tris, pH 7.4, 10 mM MgCl2, 0.1 mg/ml BSA, 1 mM DTT, 50 µM ATP, 0.2 μg/ml PAK1 and 100 uM lipid substrate. The compounds were diluted in 10% DMSO and 5 µl of the dilution was added to a 50 µl reaction so that the final concentration of DMSO is 1% in all of the reactions. The assay was performed using the Kinase-Glo Plus luminescence kinase assay kit and ADP-Glo Plus luminescence kinase assay kit. It measures kinase activity by quantitating the amount of ATP remaining in solution following a kinase reaction. The luminescent signal from the assay is correlated with the amount of ATP present and is inversely correlated with the amount of kinase activity. The IC50 values were calculated using nonlinear regression with normalised dose − response fit using Prism GraphPad software.

MAPK-JNK pathway = experiment: Western blot of MAPK-JNK pathway in MDA-MB-231 cells; type: cell-based; settings: 2.5, 5, 10 µM, 48 h western blot
Method: (§2) Cells were treated with 7j for indicated times. Both adherent and floating cells were collected. Western blot analysis was carried out. Briefly, the cell pellets were resuspended with lysis buffer consisting of Hepes 50 mM pH 7.4, Triton-X-100 1%, sodium orthovanada 2 mM, sodium fluoride 100 mM, edetic acid 1 mM, PMSF 1 mM, aprotinin (Sigma, MO, USA) 10 mg/L and leupeptin (Sigma) 10 mg/L and lysed at 4 °C for 1 h. After 12,000 rpm centrifugation for 15 min, the protein content of supernatant was determined by the Bio- Rad DC protein assay (Bio-Rad Laboratories, Hercules, CA, USA). Equal amounts of the total protein were separated by 10–15% SDS-PAGE and transferred to PVDF membranes, the membranes were soaked in blocking buffer (5% skimmed milk or BSA). Proteins were detected using primary antibodies, followed by HRP-conjugated secondary antibody and visualised by using ECL as the HRP substrate. Quantification of immunoblot was performed by Quantity One 4.4.

MDA-MB-231 cells [3] = experiment: Colony formation assay; type: cell-based
PAK1 [4] = target: T1, PAK1; experiment: Western blot of PAK1 and p-PAK1 Ser199 in MDA-MB-231 cells; type: cell-based; settings: 48 h
Method: as §1, §2

PAK1 [5] = target: T1, PAK1; experiment: Cellular thermal shift assay (CETSA); type: cell-based; settings: 10 μM, 24 h; 48, 52, 56 °C
Method: The ability of 7j to interact with and stabilise PAK1 protein in intact cells, was analysed as described before. Briefly, cells cultured in 100 × 20 mm tissue culture dishes at 90% confluence were treated with media containing DMSO or 7j (10 μM) for 24 h. After that cells were detached with trypsin and re-suspended in PBS. The cell suspension was heated for 3 min to 48, 52, and 56 °C. Subsequently, cells were lysed using liquid nitrogen and two repeated cycles of freeze-thaw. Precipitated proteins were separated from the soluble fraction by centrifugation at 17,000 g for 20 min. Soluble proteins, collected in the supernatant, were kept at −80 °C until Western blot analysis.

MDA-MB-231 cells [6] = experiment: Cell cycle assay (PI staining, flow cytometry); type: cell-based; settings: 2.5, 5, 10 μM, 48 h
Method: For cell cycle detection, MDA-MB-231 cells were treated with 2.5, 5, 10 μM 7j for 48 h and then ethyl alcohol-fixed at 4 °C for 24 h. Then the cell cycle distribution were determined by flow cytometry analysis of PI staining.

cdc25c/cdc2 pathway = experiment: Immunofluorescence and western blot of cdc25c/cdc2 pathway in MDA-MB-231 cells; type: cell-based
Method: (§3) For immunofluorescence staining, non-specific antibody binding was blocked by incubating with PBS containing 1.5% goat serum. The MDA-MB-231 cells were sequentially incubated, starting with p-cdc2^Tyr[15] antibody (1:200), p-ERK1/2 ^Thr202/Tyr204 antibody (1:200) diluted in PBS containing 1% BSA incubated overnight at 4 °C, followed by addition of fluorescent-labelled secondary antibodies for 1 h at room temperature.
as §2
Cells were transfected with PAK1 (6361, CST) and negative control (6568, CST) siRNAs at 100 nM final concentration using Lipofectamine RNAiMAX/Lip3000 reagent (Invitrogen) according to the manufacturer’s instructions. The transfected cells were used for subsequent experiments 48 h later.

MAPK-ERK pathway = experiment: Immunofluorescence and western blot of MAPK-ERK pathway in MDA-MB-231 cells; type: cell-based
Method: as §3, §2

[7] = tested in triplicate, mean ± SD, 50 µM ATP, read-out: Kinase inhibitory activity (IC50, μM) PAK1
[8] = 2.5, 5, 10 µM, 48 h western blot

T1 sequence (Q13153 whole entry): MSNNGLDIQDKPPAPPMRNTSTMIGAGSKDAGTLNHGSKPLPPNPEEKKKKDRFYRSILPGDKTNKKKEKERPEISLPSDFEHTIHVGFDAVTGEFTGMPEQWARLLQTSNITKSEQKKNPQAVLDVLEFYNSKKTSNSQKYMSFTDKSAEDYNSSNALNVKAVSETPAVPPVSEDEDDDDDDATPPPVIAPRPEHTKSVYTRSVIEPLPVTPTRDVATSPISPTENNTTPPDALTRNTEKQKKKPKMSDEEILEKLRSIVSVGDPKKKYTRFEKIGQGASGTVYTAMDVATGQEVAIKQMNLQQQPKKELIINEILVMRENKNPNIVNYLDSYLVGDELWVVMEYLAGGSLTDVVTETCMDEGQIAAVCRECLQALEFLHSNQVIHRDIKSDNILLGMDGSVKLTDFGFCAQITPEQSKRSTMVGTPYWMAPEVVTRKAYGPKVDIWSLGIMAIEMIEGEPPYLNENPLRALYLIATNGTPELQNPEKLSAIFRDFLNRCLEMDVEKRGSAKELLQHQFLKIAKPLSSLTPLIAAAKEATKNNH

inhibition at 30 µM (PAK1 [2]; read-out: PAK1 inhibition rate at 30 μM): 78%
IC50 (PAK1 [2]; [7]): 23.5 µM
Compound: CC(C)(C)OC(=O)N1CCc2c(sc(NC(=O)c3ccccc3)c2C(N)=O)C1 [2169–1087]
Antiproliferatory activity in MDA-MB-231 cells at 50 μM (MDA-MB-231 cells [1]; 50 μM): no antiproliferatory activity

melting point: 166 to 169 °C
IC50 (PAK1 [2]; [7]): 9.37 ± 1.03 µM
Compound: NC(=O)c1c(NC(=S)NC(=O)c2cccc(C(F)(F)F)c2)sc2c1CCN(C(=O)c1ccccc1Cl)C2 [Compound 7c, 6–(2-chlorobenzoyl)-2–(3-(3-(trifluoromethyl)benzoyl)thioureido)-4,5,6,7-tetrahydrothieno[2,3-c]pyridine-3-carboxamide]

melting point: 166 to 169 °C
IC50 (PAK1 [2]; [7]): 1.15 ± 0.97 µM
Compound: CC(=O)N1CCc2c(sc(NC(=S)NC(=O)c3cccc(C(F)(F)F)c3)c2C(N)=O)C1 [Compound 7d, 6-acetyl-2–(3-(3-(trifluoromethyl)benzoyl)thioureido)-4,5,6,7-tetrahydrothieno[2,3-c]pyridine-3-carboxamide]

PAK1 expression (western blot) (PAK1 [4]; larger dose 10 μM): suppressed PAK1 expression
PAK1 expression (western blot) (PAK1 [4]; smaller dose 2.5 μM and 5 μM): did not affect PAK1 expression
IC50 (MDA-MB-231 cells [1]; Homo sapiens, MDA-MB-231, 24 h, 24 h, read-out: MDA-MB-231 cell viability IC50, 24 h): 7.37 µM
IC50 (MDA-MB-231 cells [1]; Homo sapiens, MDA-MB-231, 48 h, 48 h, read-out: MDA-MB-231 cell proliferation IC50, 48 h): 4.67 µM
IC50 (MDA-MB-231 cells [1]; 48 h, read-out: MDA-MB-231 cell proliferation IC50, 48 h): 4.67 µM
Thermal stabilisation of PAK1 (CETSA) (PAK1 [5]): could stabilise PAK1
Fold less PAK1 inhibitory activity in comparison to the standard FRAX597 (PAK1 [2]; 7j versus FRAX597): over 10 fold
IC50 (PAK1 [2]; [7]): 0.21 ± 0.05 µM
IC50 (PAK1 [2]; value given in nM in the text, read-out: PAK1 IC50): 0.209 µM
Compound: NC(=O)c1c(NC(=S)NC(=O)c2cccc(C(F)(F)F)c2)sc2c1CCN(C(=O)C1CC1)C2 [Compound 7j, 6-(cyclopropanecarbonyl)-2–(3-(3-(trifluoromethyl)benzoyl)thioureido)-4,5,6,7-tetrahydrothieno[2,3-c]pyridine-3-carboxamide]
JNK and c-Jun phosphorylation (MAPK-JNK pathway): decrease of JNK and c-Jun phosphorylation
Proliferation and colony formation ability of MDA-MB-231 cells (MDA-MB-231 cells [3]): obviously inhibited
Phosphorylation of PAK1 at Ser199 (PAK1 [4]; 2.5, 5, 10 μM): inhibited the phosphorylation of PAK1 at Ser199
Cell cycle arrest (MDA-MB-231 cells [6]): induced obviously G2/M cell cycle arrest
p-cdc2 Tyr15 expression (cdc25c/cdc2 pathway; 5 µM, 48 h immunofluorescence): obviously increased
Expression of cdc25c, cyclinB1, Pin1 and NEDD8 (cdc25c/cdc2 pathway; [8]): could decrease the expression
Phosphorylation of p-cdc2 at Tyr15 after PAK1 knockdown (cdc25c/cdc2 pathway; si-PAK1, 5 μM, 48 h): almost did not affect
p-ERK1/2 Thr202/Tyr204 expression and nucleus distribution (MAPK-ERK pathway; 5 µM, 48 h immunofluorescence): inhibited its expression and nucleus distribution
Phosphorylation of p-c-Raf, p-MEK1/2 and p-ERK1/2 (MAPK-ERK pathway; [8]): suppressed MAPK-ERK pathway
